For data set [1] the following is noted: across species tested; cited from earlier work.
For data set [2] the following is noted: cited from earlier work.
For data set [3] the following is noted: rats, cited from earlier work.
The test system of data set [4] is rat model of formalin (FML)-induced chronic pain. The data set can be described thus: Von Frey assay (VFA), mechanical allodynia, formalin-induced rat pain model. The class given is in vivo, Sprague Dawley rats. An excerpt: This example describes the effects of intravenous administration of psychedelics on pain perception and diseases associated with pain, such as nociplastic pain, in an animal model of pain. A rat model of formalin (FML)-induced chronic pain was used to investigate the effect of psilocybin administration on mechanical allodynia and thermal hyperalgesia.
Chronic pain in rats was induced by injection of formalin into the hind paw. The rats subsequently were intravenously administered psilocybin, and assessed for changes in pain perception over an extended period of time. […] The pain perception was measured in the contralateral and ipsilateral paws to assess the potential benefit of psychedelics (e.g., psilocybin) in nociplastic pain disorders. […]
Adult male Sprague Dawley rats (300-350 g) were implanted with a catheter in the jugular vein for delivery of 10 mg/kg psilocybin or 0.9% saline. Mechanical allodynia was assessed using von Frey assay (VFA) and was expressed as the threshold in grams (g). Thermal hyperalgesia was measured as paw withdrawal latency in seconds (s) using the hot plate assay (HPA) (52.5° C.). After post-surgical recovery (7-10 days), baseline responses to mechanical and thermal stimuli were measured. […] Two hours after the formalin injection, paw withdrawal thresholds in response to mechanical and thermal stimuli were measured. […]
Two types of pain perception were measured. […]

The conditions of data set [5]: cited from earlier work. The source holds these as a separate data set.
Where [6] appears, read: single oral administration of psilocybin at 0.225 mg/kg (Hasler et al.).

We go through two molecules from patent publication US20260108545A1, “Methods of treating fibromyalgia with compositions comprising psilocybin” (Tryp Therapeutics Inc., priority 2022, published 2026).

Each structure is given as a SMILES string.

Take `CN(C)CCc1c[nH]c2cccc(O)c12` [psilocin]: the “brain regions with the highest levels of psilocin” value in data set [1] is “neocortex, hippocampus, and thalamus”. For the same molecule, the “time until psilocin is detectable in plasma” value in data set [2] (after administration of the parent compound (oral psilocybin)) is at most 20 min. In data set [2] (estimate (Hasler et al.)), the “absolute bioavailability of psilocin after oral administration of psilocybin” value is reported as 52.7+/−20%. In addition, the “half-life of psilocin in blood” value in data set [2] (in vivo) is 2 to 3 h. In data set [2] (setting [6]), the “average peak concentration of psilocin in plasma” value is 8.2+/−2.8 ng psilocin/ml plasma and the “time of peak plasma levels of psilocin” value was 105 ± 37 min. Moreover, in data set [3] (oral psilocybin (Kalberer et al.)), the “share of total psilocin absorbed from the digestive tract” value is on record as “approximately 50%”. For the same molecule, the “time to maximum plasma levels” value in data set [3] (post-administration (Chen et al.)) is on record as “approximately 90 minutes”.

Consider `CN(C)CCc1c[nH]c2cccc(OP(=O)(O)O)c12` [psilocybin, 3-[2-(dimethylamino)ethyl]-1H-indol-4-yl]dihydrogen phosphate], for which, in data set [4] (contralateral paw, after a single psilocybin administration), the “duration of statistically significant increase in withdrawal threshold” value amounted to 3 weeks. For the same molecule, the “duration of decreased tactile pain” value in data set [4] (rat model of pain) is “up to 28 days”. In addition, in data set [5] (at the doses examined in clinical studies / healthy individuals), the tolerability result was “well tolerated”. Moreover, the “rates of prolonged psychiatric symptoms of any kind following psilocybin exposure” value in data set [5] (healthy study subjects, estimated) was 0.08-0.09%. Also, the “drug-related serious adverse events (SAEs)” value in data set [5] (oral psilocybin) is given as “No drug-related serious adverse events (SAEs) have been reported”. For the same molecule, the “bioavailability of oral psilocybin” value in data set [2] (oral) is listed as about 50%.
